Reference: ChEMBL document CHEMBL3507680, “University of Dundee, Gates Library screen for HepG2 cell viability”

Assay: Human HepG2 cell viability assay in 384 well format
Assay type: toxicity, cell-based
Design: dose 125 nL, time 70.5 hour; concentration not given beside the values
Settings: HepG2 cells, read-out: Inhibition

| Compound | cytotoxicity at 70.5 h [%] |
| --- | --- |
| Cc1nc(N2CCN(C)CC2)ncc1C(=O)N1CCCCC1 | -0.181 |
| CCN(CC)S(=O)(=O)c1ccc2c(c1)N(Cc1ccncc1)C(=O)CS2 | -3.41 |
| CCNC(=O)COc1cc(CC)c2c(C)nn(-c3ccc(C)cc3)c2n1 | -3.18 |
| CCOCc1nc(N2CCCC2)sc1C(=O)NCCC(=O)OCC | -6 |
| CCOCCCNC(=O)C1(C)CCC(=O)N1c1cc(OC)ccc1OC (configuration not stated) | -2.77 |
| O=C1C[C@H]2[C@H](CCN2C(=O)c2cc[nH]n2)N1Cc1cccnc1 | -9.27 |
| CN(C)C(=O)N1CCC2(CC1)C(=O)N(CC1CCOC1)c1ccccc12 (configuration not stated) | -9.22 |
| O=C(c1ccco1)N1CCC2(CCC(=O)N2Cc2ccccc2)CC1 | -11.1 |
| Cc1cccc(CN2C(=O)CCC23CCN(C(=O)c2ccco2)CC3)c1 | -10.9 |
| CN(C)C(=O)N1CCN(c2ccc3ccc(C(=O)NC4CC4)cn23)CC1 | 11.8 |
| CN(C)C(=O)c1ccc2ccc(N3CCN(CC4CC4)CC3)n2c1 | 19.2 |
| CN1[C@@H](C(=O)NCC2CC2)C[C@@H]2CN(Cc3ccoc3)C[C@@H]21 | 13.7 |
| CCc1ccc(C(=O)N2CCCC3(CCCC(=O)N3C)C2)cc1 (configuration not stated) | -10.6 |
| O=C(NCC1CC1)C1CCC2(CCN(C(=O)c3ccoc3)CC2)O1 (configuration not stated) | -20 |
| Cc1nc(CN2C(=O)C[C@@H]3[C@@H]2CCN3Cc2cnn(C)c2)cs1 | -15.4 |
| CN(C)CCN1C(=O)CCC12CCCN(C(=O)CC1CC1)CC2 (configuration not stated) | 20.2 |
| O=C(C1CCOCC1)N1CC[C@@H](O)[C@@H]1Cc1ccncc1 | -0.548 |
| CCOCC(=O)N1CCC2(CC1)CN(Cc1cccnc1)C(=O)CO2 | -9.22 |
| c1cnc(N2CCCC3(CCN(Cc4cccs4)C3)C2)nc1 (configuration not stated) | -6.41 |
| COCCN1C(=O)CCC12CCCN(C(=O)CC1CC1)CC2 (configuration not stated) | -6.84 |
| O=C(c1ccnnc1)N1CC[C@@H](O)[C@@H]1Cc1ccccc1 | -9.3 |
| CN(C)C(=O)N1CC[C@@H](O)[C@@H]1Cc1ccccc1 | -7.54 |
| O=C1CC2(CCCCN2C(=O)c2cccs2)CN1CC1CC1 (configuration not stated) | 3.54 |
| CN(C)CCNC(=O)c1ccc2ccc(N(C)CC3CC3)n2c1 | -0.944 |
| Cc1nc(N2CCOCC2)nc2c1CCN(C(=O)N1CCCC1)CC2 | -2.06 |
| Cc1cccc(CN2C(=O)CCC23CCN(Cc2ccoc2)CC3)n1 | -0.993 |

| Compound | cytotoxicity at 70.5 h [%] |
| --- | --- |
| CN(C)C(=O)CNC(=O)c1ccc2ccc(N(C)CC3CC3)n2c1 | -12.4 |
| CCS(=O)(=O)N1CCc2nc(N3CCCC3)nc(N(C)C)c2CC1 | 24.9 |
| CCS(=O)(=O)N1CCOC2(COCCN(C(C)=O)C2)C1 (configuration not stated) | 28.6 |
| Cc1nnc(N2C[C@@H]3CCCO[C@@H]3[C@H](N(C)C)C2)s1 | 26.3 |
| CN1CCN(C(=O)Cc2ccccn2)Cc2cccnc21 | -2.09 |
| COCC1CN(C(=O)c2ccnnc2)Cc2ncnn2C1 (configuration not stated) | -3.33 |
| CCN1C(=O)C2(CCOCC2)c2cc(NC(=O)c3cnccn3)ccc21 | 1.85 |
| CCN1C(=O)C2(CCOCC2)c2cc(NC(=O)c3cc(C)n[nH]3)ccc21 | -3.02 |
| Cc1cc(C(=O)NCC2Cn3nnc(C)c3CO2)no1 (configuration not stated) | -7.19 |
| Cn1cc(CN2CCc3c(COCc4ccncc4)cncc3C2)cn1 | -6.18 |
| Cc1ccc(CN2CC[C@H]3C[C@H](c4nc(C5CC5)cs4)O[C@@H]3C2)o1 | -6.11 |
| O=C1CC2(CCCNC2)C(=O)N1Cc1cccc(F)c1 (configuration not stated) | -8.03 |
| O=C1CC2(CCCNC2)C(=O)N1Cc1ccc(Cl)cc1 (configuration not stated) | -15.9 |
| O=C1CC2(CCCNC2)C(=O)N1Cc1cccc(Cl)c1 (configuration not stated) | 29.4 |
| CC(C)CN1CCC2(C=C(C(=O)NC3CC3)c3ccccc32)CC1 | -11.9 |
| COCCN1CCC2(CCN(Cc3ccc(OC)cc3)CC2)C1=O | -11.1 |
| CCO[C@@H]1CO[C@@]2(CCN(Cc3ccc4c(c3)OCO4)C2)C1 | -17.3 |
| CC(C)CN1CCC2(CCN(Cc3ccc(F)cc3)CC2)C1=O | -5.32 |
| C[C@H]1CN(C(=O)c2ccoc2)C[C@@]12CCN(CCN(C)C)C2=O | 14.7 |
| CC(C)NC(=O)CC1COC2(CCN(Cc3ccsc3)CC2)C1 (configuration not stated) | -9.99 |
| O=C(NCC1CC1)C1CCC2(CCN(C(=O)c3cccnc3)CC2)O1 (configuration not stated) | -9.48 |
| CN(C)C(=O)CN1C(=O)CCC12CCN(Cc1ccsc1)CC2 | -15.7 |
| CCN1C(=O)CCC12CCCN(Cc1ccc(F)cc1)CC2 (configuration not stated) | -9.34 |
| Cc1ccc(CN2CCC3(CCC(=O)N3CC(=O)N(C)C)CC2)s1 | -13.1 |
| O=C(C1CCCC1)N1C[C@@H]2CCN(c3cnccn3)C[C@@H]2C1 | -1.88 |
| CC(=O)N1CCN(Cc2ccco2)CC2(CC(=O)N(C)C2)C1 (configuration not stated) | 20.7 |

| Compound | cytotoxicity at 70.5 h [%] |
| --- | --- |
| O=C(c1ccco1)N1CC2(CCNCC2)c2cc(Cl)ccc21 | 27.2 |
| O=C1CC2(CCCCN2C(=O)c2ccncc2)CN1CC1CC1 (configuration not stated) | 1.69 |
| CC(=O)N1[C@H](CN(C)C)C[C@@H]2CN(C(=O)c3cncc(C)c3)CC[C@@H]21 | -10.6 |
| COc1ccc(CN2CCC3(CC2)CCN(CCN(C)C)C3=O)cc1 | -18 |
| O=C1CCC2(CCN(Cc3ccc(F)cc3)CC2)N1CCN1CCCC1 | -19.9 |
| CN1[C@@H](C(=O)NCC2CC2)C[C@H]2CN(Cc3cccc(C#N)c3)C[C@H]21 | -13.8 |
| CN1CCC(CN2CCC3(CCCN(Cc4ccoc4)C3)C2=O)CC1 (configuration not stated) | -10.7 |
| c1ccc(N2CCC3(COCCN(Cc4cccs4)C3)C2)nc1 (configuration not stated) | -4.82 |
| C[C@@H]1CN(Cc2cccc(F)c2)C[C@]12CCN(Cc1cccnc1)C2=O | -10.4 |
| CNC(=O)[C@H]1C[C@@H]2CN(Cc3cccnc3OC)C[C@@H]2N1C(C)=O | -9.57 |
| Cc1ccc(C(=O)N2CC3(CCNCC3)c3cc(Cl)ccc32)cn1 | -7.61 |
| O=C(c1ccncc1)N1CC2(CCNCC2)c2cc(Cl)ccc21 | -6.69 |
| COCCN1CC[C@]2(CN(Cc3cccnc3)C[C@H]2C)C1=O | -10.8 |
| CN(C)CCN1CCCC12CCCN(C(=O)c1cccnc1)C2 (configuration not stated) | -5.22 |
| C[C@H]1CN(CC2CCOCC2)C[C@@]12CCN(Cc1cccnc1)C2=O | -9.39 |
| Cc1cccc(CN2C(=O)CCC23CCN(c2ccccn2)CC3)n1 | -9.61 |
| Cc1ccc(N2C[C@@H]3CCCO[C@@H]3[C@H](N3CCCC3)C2)nn1 | 27 |
| COCC1CN(Cc2cccnc2)Cc2nnn(CC3CC3)c21 (configuration not stated) | 19.4 |
| O=C(Cc1cccnc1)N1CCCC2(CCN(C3CCOCC3)C2)C1 (configuration not stated) | 9.18 |
| c1ccc(CN2CCC3(CC2)CN(c2ccccn2)CCO3)nc1 | -5.77 |
| CCS(=O)(=O)N1CCC2(C1)C(=O)N(C)CCN2Cc1ccncc1 (configuration not stated) | -7.36 |
| O=C(Cc1cccnc1)N1CCC2(CCN(CC3CCCCC3)C2)CC1 | 7.82 |
| C[C@@H]1CN(Cc2ccccn2)C[C@]12CCN(Cc1cccnc1)C2=O | -13.1 |
| CN1CCN(Cc2cccnc2)C2(CCN(C3CCOCC3)C2)C1=O (configuration not stated) | -5.52 |
| CN1CCN(Cc2cccnc2)C2(CCN(Cc3ccccn3)C2)C1=O (configuration not stated) | -7.04 |
